Laboratory results as given in publication PMC12794188, “Maternal–Fetal Transfer and Toxicokinetics of 2,2′,5,5′-Tetrachlorobiphenyl, [^14C]-PCB52, Following Intratracheal Administration” (Chemical Research in Toxicology, 2025).

Assay: Toxicokinetics and tissue disposition of total [14C] radioactivity after a single intratracheal dose of [14C]-PCB52 (0.157 mg/kg) in pregnant rats at GD 11±1
Format: in vivo, Sprague–Dawley rats
Description: Female Sprague–Dawley rats (8 weeks old) weighing 237–269.7 g (mean = 247.5 g) (Envigo RMS, LLC, Indianapolis, IN) were used for this study. All animal experiments were performed following the protocols evaluated and approved by the University of Iowa Institutional Animal Care and Use Committee (approval number 3091097). After arrival, the animals were acclimated for 7 days. The animals were housed in a light and temperature-controlled environment with ad libitum access to food and water during quarantine and throughout the study. Timed pregnancy was achieved by harem mating. , Briefly, one male and two female rats were placed together in the evening and checked for vaginal plug the following day. If vaginal plug was present, the male was removed from the breeding cage, and the gestation day 0 (GD 0), 0-day post coitum was assigned. Pregnancies were confirmed by ultrasound scan at GD 9. The dams were exposed at GD 11 (±1 day) to capture the period of early organogenesis and hormonal function, which falls within week 3 of human embryonic development. ,− On the day of the experiment, pregnant rats were intratracheally administered an average of 40 μg (range, 35–45 μg) of [^14C]-PCB52 in 100 μL of exposure solution. Although the dose used in this study exceeded the tolerable daily intake (TDI) of PCBs for healthy individuals, which is 1.6 μg per day for an individual weighing 80 kg, the use of higher acute doses has been established in toxicological studies intended for risk assessment. The intratracheal instillation method was chosen for administering [^14C]-PCB52 to represent inhalation exposures, capture exhaled concentration, and efficiently utilize the limited availability of the cost-intensive radiolabeled PCB52. , Although inhalation exposure would better represent real-world exposures to airborne LC-PCBs, it would not allow us to accurately measure the amount of PCB52 exhaled into the air after exposure and is experimentally infeasible. […] All intratracheal instillations were done under light anesthesia, achieved using a 4% isoflurane concentration via a Fortec vaporizer (Cyprane, Keighley, UK). The animals recovered from anesthesia within 1 min. Subsequently, the animals were housed within a cylindrical glass chamber measuring 2 L in volume, equipped with glass drainage mechanisms to facilitate urine collection and a metallic screen to segregate urine from feces (as in Figure S1). Air was drawn from the chamber at 6.0 L/min through a cartridge containing the XAD-2 polymeric resin to capture any exhaled [^14C]-PCB52. For periods longer than 24 h postexposure, exposed dams were placed in a metabolic cage, which was fitted with a cartridge containing XAD-2 to capture exhaled [^14C]-PCB52 as in other end points.
Maternal blood, urine, and feces samples were collected immediately before and at 0.21, 1.67, 12, 24, 48, and 96 h after lung dosing. The exposed dams were euthanized using 4% isoflurane, followed by cervical dislocation and exsanguination via a cardiac puncture. Euthanasia was consistently performed during the light cycle. Dams’ fur was wiped and analyzed for radioactivity. Using the retro-orbital blood collection method, 0.5–1.5 mL ([…] of an exposed pregnant rat’s body weight) of blood sample was collected from each of the dams until the individual dams were necropsied for whole-body tissue harvesting. At the end of the exposure period, the chamber’s interior walls were rinsed separately with water and acetone/hexane (25 – 45 mL) and wiped to measure residues. From the collected whole blood samples, 100 μL were aliquoted into three vials each, and the remaining blood was allowed to clot at room temperature before being centrifuged to yield serum. The placentas, developing fetuses, and whole-body tissue samples were harvested immediately before exposure and at 0.21, 1.67, 12, 24, and 96 h postexposure. […]

[1] = AF (amniotic fluid)/MS (maternal serum)
[2] = Adipose tissue, 0.21 h post-exposure
[3] = Adipose tissue, 1.67 h post-exposure
[4] = Adipose tissue, 12 h post-exposure
[5] = Brown adipose, 0.21 h post-exposure
[6] = Brown adipose, 1.67 h post-exposure
[7] = Brown adipose, 12 h post-exposure
[8] = Brown adipose, 24 h post-exposure
[9] = Brown adipose, 96 h post-exposure
[10] = Esophagus, 0.21 h post-exposure
[11] = Esophagus, 1.67 h post-exposure

Which results are given for Clc1ccc(Cl)c(-c2cc(Cl)ccc2Cl)c1 [PCB52, 2,2′,5,5′-Tetrachlorobiphenyl]?
AUC0‑∞ ratio [1]: 0.050; AUC0–96h ratio [1]: 0.053; C max ratio [1]: 0.043; AUC0–96h ratio (AF (amniotic fluid)/brain): 0.079; C max ratio (AF (amniotic fluid)/brain): 0.071; AUC_%Extrap (Adipose tissue): 42.32%; Terminal elimination half-life (t1/2) (Adipose tissue): 72.85 h; Conc. per mg wet tissue [2]: 8.78 dpm/mg; Percent tissue distribution [2]: 10.92%; Conc. per mg wet tissue [3]: 19.77 dpm/mg; Percent tissue distribution [3]: 33.81%; Conc. per mg wet tissue [4]: 27.29 dpm/mg; Percent tissue distribution [4]: 26.32%; Percent tissue distribution (Adipose tissue, 24 h post-exposure): 28.25%; AUC_%Extrap (Adrenal gland): 74.40%; Terminal elimination half-life (t1/2) (Adrenal gland): 253.59 h; AUC_%Extrap (Bladder): 40.50%; Terminal elimination half-life (t1/2) (Bladder): 57.81 h; Conc. per mg wet tissue (Brain, 0.21 h post-exposure): 1.44 dpm/mg; Percent tissue distribution (Brain, 0.21 h post-exposure): 0.79%; Conc. per mg wet tissue (Brain, 1.67 h post-exposure): 4.90 dpm/mg; Percent tissue distribution (Brain, 1.67 h post-exposure): 0.52%; Conc. per mg wet tissue (Brain, 12 h post-exposure): 0.67 dpm/mg; Percent tissue distribution (Brain, 12 h post-exposure): 0.08%; Conc. per mg wet tissue (Brain, 24 h post-exposure): 0.64 dpm/mg; Percent tissue distribution (Brain, 24 h post-exposure): 0.07%; Conc. per mg wet tissue (Brain, 96 h post-exposure): 0.67 dpm/mg; Percent tissue distribution (Brain, 96 h post-exposure): 0.10%; Conc. per mg wet tissue (Bronchi, 0.21 h post-exposure): 81.91 dpm/mg; Percent tissue distribution (Bronchi, 0.21 h post-exposure): 0.66%; Conc. per mg wet tissue (Bronchi, 1.67 h post-exposure): 33.51 dpm/mg; Percent tissue distribution (Bronchi, 1.67 h post-exposure): 0.20%; Conc. per mg wet tissue (Bronchi, 12 h post-exposure): 20.05 dpm/mg; Percent tissue distribution (Bronchi, 12 h post-exposure): 0.10%; Conc. per mg wet tissue (Bronchi, 24 h post-exposure): 18.87 dpm/mg; Percent tissue distribution (Bronchi, 24 h post-exposure): 0.08%; Conc. per mg wet tissue (Bronchi, 96 h post-exposure): 1.44 dpm/mg; Percent tissue distribution (Bronchi, 96 h post-exposure): 0.01%; Conc. per mg wet tissue [5]: 40.87 dpm/mg; Percent tissue distribution [5]: 0.21%; Conc. per mg wet tissue [6]: 120.53 dpm/mg; Percent tissue distribution [6]: 0.87%; Conc. per mg wet tissue [7]: 27.78 dpm/mg; Percent tissue distribution [7]: 0.00%; Conc. per mg wet tissue [8]: 23.09 dpm/mg; Percent tissue distribution [8]: 0.18%; Conc. per mg wet tissue [9]: 4.17 dpm/mg; Percent tissue distribution [9]: 0.00%; AUC_%Extrap (Colon tissue): 22.17%; Terminal elimination half-life (t1/2) (Colon tissue): 40.46 h; Conc. per mg wet tissue (Colon, 0.21 h post-exposure): 9.24 dpm/mg; Percent tissue distribution (Colon, 0.21 h post-exposure): 0.35%; Conc. per mg wet tissue (Colon, 1.67 h post-exposure): 5.24 dpm/mg; Percent tissue distribution (Colon, 1.67 h post-exposure): 0.28%; Conc. per mg wet tissue (Colon, 12 h post-exposure): 5.56 dpm/mg; Percent tissue distribution (Colon, 12 h post-exposure): 0.41%; Conc. per mg wet tissue (Colon, 24 h post-exposure): 9.18 dpm/mg; Percent tissue distribution (Colon, 24 h post-exposure): 0.51%; Conc. per mg wet tissue (Colon, 96 h post-exposure): 1.87 dpm/mg; Percent tissue distribution (Colon, 96 h post-exposure): 0.16%; AUC_%Extrap (Duodenum): 14.10%; Terminal elimination half-life (t1/2) (Duodenum): 34.84 h; Tmax (Duodenum): ≤ 0.21 h; Conc. per mg wet tissue (Duodenum, 0.21 h post-exposure): 21.37 dpm/mg; Percent tissue distribution (Duodenum, 0.21 h post-exposure): 0.71%; Conc. per mg wet tissue (Duodenum, 1.67 h post-exposure): 8.50 dpm/mg; Percent tissue distribution (Duodenum, 1.67 h post-exposure): 0.25%; Conc. per mg wet tissue (Duodenum, 12 h post-exposure): 3.28 dpm/mg; Percent tissue distribution (Duodenum, 12 h post-exposure): 0.12%; Conc. per mg wet tissue (Duodenum, 24 h post-exposure): 4.69 dpm/mg; Percent tissue distribution (Duodenum, 24 h post-exposure): 0.17%; Conc. per mg wet tissue (Duodenum, 96 h post-exposure): 0.83 dpm/mg; Percent tissue distribution (Duodenum, 96 h post-exposure): 0.05%; AUC_%Extrap (Esophagus): 11.71%; Terminal elimination half-life (t1/2) (Esophagus): 46.31 h; Conc. per mg wet tissue [10]: 72.35 dpm/mg; Percent tissue distribution [10]: 0.51%; Conc. per mg wet tissue [11]: 5.67 dpm/mg; Percent tissue distribution [11]: 0.06%; Conc. per mg wet tissue (Esophagus, 12 h post-exposure): 1.09 dpm/mg; Percent tissue distribution (Esophagus, 12 h post-exposure): 0.01%; Conc. per mg wet tissue (Esophagus, 24 h post-exposure): 0.76 dpm/mg; Percent tissue distribution (Esophagus, 24 h post-exposure): 0.01%
